Source: US10588929B1, “Method of synthesizing watermelon seed particles” (KING SAUD UNIVERSITY, priority 2019, dated 2020)

Legend:
Assay in all cases: Zone of inhibition, diffusion agar technique
Assay type in all cases: cell-based
Settings in all cases: beyond well diameter of 6 mm, 100 μg of nanoparticles
[1] = tested on: Bacillus subtilis (RCMB 010068)
Protocol: (§1) Watermelon seed nanoparticles synthesized according to Example 1 were tested for antimicrobial activity against gram negative bacteria, gram positive bacteria, and fungi. Zone of inhibition studies were performed, the results of which are summarized in Table 2 (displaying mean zone of inhibition in mm ± standard deviation beyond well diameter of 6 mm). Testing used the diffusion agar technique with 6.0 mm well diameter and administration of 100 μg of the watermelon seed nanoparticles.

[2] = tested on: Streptococcus pneumoniae (RCMB 010011)
Protocol: as §1

[3] = tested on: Aspergillus fumigatus (RCMB 02567)
Protocol: as §1

[4] = tested on: Escherichia coli (RCMB 010054)
Protocol: as §1

Molecule: CC1(C)S[C@@H]2[C@H](NC(=O)[C@H](N)c3ccccc3)C(=O)N2[C@H]1C(=O)O [Ampicillin]
- mean zone of inhibition [1]: 31.3 ± 1.5 mm
- mean zone of inhibition [2]: 21.0 ± 1.0 mm

Molecule: C[C@@H]1[C@H](O)[C@@H](C)/C=C/C=C/C=C/C=C/C=C/C=C/C=C/[C@H](O[C@@H]2O[C@H](C)[C@@H](O)[C@H](N)[C@@H]2O)C[C@@H]2O[C@](O)(C[C@@H](O)C[C@@H](O)[C@H](O)CC[C@@H](O)C[C@@H](O)CC(=O)O[C@H]1C)C[C@H](O)[C@H]2C(=O)O [Amphotericin B]
- mean zone of inhibition [3]: 21.7 ± 1.5 mm

Molecule: Gentamicin
- mean zone of inhibition [4]: 20.3 ± 0.58 mm
